Patent publication US8691760B2, “Peptides, pharmaceutical compositions comprising same and uses thereof” (priority 2009, dated 2014)
pIC50: −log10 of the molar value. Several values for one entry are separate records, joined by “and”; a condition that tells them apart may be missing. Equal values may be shown once. Entries after “also recorded” stand apart in the source; their conditions may differ. Read-outs that look alike come from different tables or passages of the source. Ends that are not written are not given here. Peptide text beside a SMILES is read from it.

Tests used:
[1] = target: T1, rat recombinant IDE (Rattus norvegicus, UniProt P35559); experiment: Fluorometric IDE activity assay (InnoZyme Insulysin/IDE Immunocapture Activity Assay Kit, FRET substrate); assay type: biochemical; settings: 16 hours at 37° C.; for pIC50: 3 repeated experiments
T1 construct: purchased Calbiochem (InnoZyme Insulysin/IDE Immunocapture Activity Assay Kit) CBA079
T1 sequence (P35559 whole entry): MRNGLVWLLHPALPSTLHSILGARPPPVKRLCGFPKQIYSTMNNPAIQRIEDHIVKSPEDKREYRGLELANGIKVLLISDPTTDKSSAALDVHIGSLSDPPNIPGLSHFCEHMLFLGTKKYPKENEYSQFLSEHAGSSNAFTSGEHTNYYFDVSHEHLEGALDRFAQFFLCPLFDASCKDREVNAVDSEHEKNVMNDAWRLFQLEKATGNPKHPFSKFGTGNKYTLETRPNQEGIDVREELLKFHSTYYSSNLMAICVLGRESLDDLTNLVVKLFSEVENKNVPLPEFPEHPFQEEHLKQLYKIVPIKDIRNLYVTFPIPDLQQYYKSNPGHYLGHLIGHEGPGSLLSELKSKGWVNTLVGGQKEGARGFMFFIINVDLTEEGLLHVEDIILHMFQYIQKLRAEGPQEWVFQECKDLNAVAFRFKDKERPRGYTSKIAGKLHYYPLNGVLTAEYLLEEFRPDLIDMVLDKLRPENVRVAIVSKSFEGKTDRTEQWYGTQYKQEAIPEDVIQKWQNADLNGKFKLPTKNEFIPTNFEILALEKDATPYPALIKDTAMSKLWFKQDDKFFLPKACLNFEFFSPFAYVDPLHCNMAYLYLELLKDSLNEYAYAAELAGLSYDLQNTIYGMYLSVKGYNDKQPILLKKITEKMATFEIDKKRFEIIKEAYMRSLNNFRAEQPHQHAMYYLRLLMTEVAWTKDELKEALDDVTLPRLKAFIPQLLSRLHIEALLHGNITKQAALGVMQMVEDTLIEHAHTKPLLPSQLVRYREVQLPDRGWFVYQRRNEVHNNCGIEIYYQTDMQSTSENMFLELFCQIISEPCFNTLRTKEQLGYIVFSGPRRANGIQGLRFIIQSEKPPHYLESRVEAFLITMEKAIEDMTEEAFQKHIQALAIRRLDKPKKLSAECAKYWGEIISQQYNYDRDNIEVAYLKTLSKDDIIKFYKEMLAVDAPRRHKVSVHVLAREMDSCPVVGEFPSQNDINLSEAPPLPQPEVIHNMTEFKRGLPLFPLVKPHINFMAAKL
Protocol: For example, one method that may be used (as described in detail in Example 2, of the Examples section which follows) comprises the use of Insulysin/IDE Immunocapture Activity Assay Kit (available e.g. from InnoZyme™, Calbiochem). Using this kit ELISA plates are first coated with the target enzyme (i.e. IDE) and then the plates are incubated with the synthesized peptide. The enzymatic activity is measured in comparison to wells without the peptide using for example a FRET substrate, Mca-[…]-EDDnp (SEQ ID NO: 11). Cleavage of the scissile amide bond between R and K releases the fluorophore from the quenching molecule, Dnp, resulting in an increase in fluorescence. The increase in fluorescence is measured using an excitation wavelength of 320 nm and an emission wavelength of 405 nm.
In order to measure IDE activity, coating of ELISA plates with the target enzyme (i.e. IDE) was carried out. Next, plates were incubated with the selected synthesized peptide candidate and the enzymatic activity was measured as compared to wells without the peptide candidate. This was carried out using InnoZyme™ Insulysin/IDE Immunocapture Activity Assay Kit from Calbiochem (worldwidewebdotmerckbiosciencesdotcom/Products/pdsdotaspquestionmarkcatnoequal CBA079), a specific and sensitive assay for measuring active IDE in cell lysates, tissue extracts and biological fluids.
Peptide ability to inhibit IDE activity was measured using InnoZyme™ Insulysin/IDE Immunocapture activity assay kit (Calbiochem), an affinity purified polyclonal antibody that recognized human, mouse, and rat insulysin, immobilized on a 96-well plate to capture the enzyme. In brief, rat recombinant IDE (1.14 nM) was incubated with increasing amounts of the candidate inhibitors with doses ranging from 1-100 μM for 16 hours at 37° C. and the activity of captured IDE was measured using a FRET substrate, Mca-[…]-EDDnp (SEQ ID NO: 11). Cleavage of the scissile amide bond between R and K released the fluorophore from the quenching molecule, Dnp, resulting in an increase in fluorescence. The increase in fluorescence was measured using an excitation wavelength of 320 nm and an emission wavelength of 405 nm. As a control, the kit used rat recombinant IDE. IC50 were evaluated following three repeated experiments.
Specifically, rat recombinant IDE (1.14 nM) was incubated with different doses of ADT-21 ([…]) for 16 hours at 37° C. and the activity of the captured insulysin (IDE) was measured using a FRET substrate, Mca-[…]-EDDnp (SEQ ID NO: 11) using Florolog with the following parameters Ex=320 nm, Gm=405 nm, Slit=2, Maximum trails=10, Integration time=1, Target standard deviation=1%.

[2] = target: IDE (Rattus norvegicus, UniProt P35559); experiment: In vitro insulin degradation assay (bovine insulin + IDE, insulin ELISA); assay type: biochemical; settings: ADT21 0.2 nM; insulin 0.87 nM, IDE 1.14 nM, 16 hours at 37° C.
Chain of IDE (Rattus norvegicus, UniProt P35559) (P35559 whole entry): as above
Protocol: Insulin (0.87 nM) isolated from bovine pancreas (SIGMA) was incubated for 16 hours at 37° C. in the presence or absence of IDE (1.14 nM) together with the inhibitors (0.002-0.2 nM). The levels of insulin degradation were analyzed using mouse insulin ELISA kit (Mercodia).
In order to verify that ADT21 reduces degradation of insulin by IDE, inventors incubated bovine insulin for 16 hours at 37° C. with or without IDE (1.14 nM) along with ADT21. The levels of insulin degradation were analyzed using a mouse insulin ELISA kit (as described in the “materials and experimental procedures” section above). […] Therefore, inventors speculated that the use of this inhibitor in vivo would delay insulin degradation without preventing IDE activity.

[3] = system: NOD mice; experiment: NOD mouse model of insulin dependent diabetes mellitus, nasal administration, blood glucose / diabetes onset; assay type: in vivo
From the text: (§1) A NOD mouse model has been used as previously described as a model for insulin dependent diabetes mellitus (IDDM) [Atkinson et al., (1990) Diabetes 39, 933-937]. Diabetes in NOD (NOD/ShiLtJ) mice is characterized by insulitis and marked decreases in pancreatic insulin content that occurred in females at about 15 weeks of age. The animals were monitored carefully when receiving the different treatments. Onset of diabetes was marked by moderate glycosuria and by non-fasting plasma glucose higher than 250 mg/dl.
(§2) 12 week old NOD mice were divided into two groups of 10-12 mice each, receiving, every other day, nasal administration of 10 μl of the respective peptide (3.76 μg/kg) or control PBS.
Mice were monitored for blood glucose levels weekly using glucose test strip (Elite, BAYER).

[4] = system: CD4+ T-cells; experiment: Co-culture of CD4+ T-cells of insulin-immunized NOD mice with spleen cells, IFN-γ and IL-17 ELISA; assay type: cell-based, mouse; settings: co-culture with 10 μg/ml insulin, with or without 100 nM ADT21, 48 h
Protocol: (§3) Secretions of IFN-γ and IL-17 were measured in 48 hour cultured supernatants by ELISA. Briefly, 96 well plates were coated overnight with 1.5 μg/ml capture antibody (R&D Systems). Supernatants (as described above) were incubated overnight and detection biotinylated antibody (1 μg/ml, R&D Systems) was added for 1 hour. Plates were covered for 30 minutes with avidin-HRP conjugate and […] was used as a substrate for color development. 1M H2SO4 was used as a stop solution. Plates were measured using an ELISA plate reader at 405 nm.
NOD mice were immunized subcutaneously (s.c.) with bovine insulin (SIGMA) (n=6-7). 10 days later, CD4+ T-cells were isolated from the spleens of these mice using magnetic beads for negative selection (Miltenyi Biotec). The CD4+ T cells were co-cultured at a concentration of 1×10^6 cells/well in 96-well plates at a ratio of 1:1 with cells obtained from spleens of non immunized NOD mice (n=5). The co-culture was incubated with 10 μg/ml insulin with or without 100 nM ADT21. Supernatants were collect after 48 h of co-culture for cytokine measurements by ELISA for IL-17 and IFN-γ.

[5] = system: splenocytes obtained from NOD mice; experiment: IFN-γ and IL-17 secretion from splenocytes of ADT21-treated NOD mice (ELISA); assay type: in vivo, mouse; settings: splenocytes of treated NOD mice (30 weeks), incubated with insulin 48 hours
Protocol: Splenocytes were obtained from NOD mice at the age of 30 weeks. Splenocytes were obtained from both control and ADT21-treated mice. Splenocytes were cultured in T cell medium buffer and plated at 1×10^6 cells per well with and without bovine insulin (Sigma) for 48 hours as previously described [Frenkel et al. (2003) J Immunol 171, 6549-6555].
as §3

[6] = system: NOD mice; experiment: IGF-1 blood level in NOD mice at 30 weeks (AssayMax mouse IGF1 kit); assay type: in vivo
From the text: NOD mice were monitored for the blood level of Insulin growth factor 1 (IGF-1) at 30 weeks using AssayMax mouse IGF1 kit.

[7] = system: NOD mice; experiment: Blood insulin levels in NOD mice at 30 weeks (HTRF Insulin assay); assay type: in vivo, mouse; settings: serum
From the text: as §1, §2
Mice were monitored for insulin blood levels at 30 week using HTRF® Insulin assay (Cisbio bioassays).

[8] = system: NOD mice; experiment: Degree of insulitis, histological analysis of the pancreas of NOD mice; assay type: in vivo, mouse; settings: NOD mice at 30 weeks, vs PBS-treated group
From the text: Randomly selected animals from each group (at 30 weeks) were sacrificed and the pancreas of each was examined in a double-blind fashion for insulitis using histological analysis of the pancreas as previously described [Frenkel et al. (2003) J Immunol 171, 6549-6555]. Six to ten islets per mouse were individually scored by two independent observers using a semi-quantitative scale ranging from 0-4 as follows: 0, normal islet with no sign of T cell infiltration; 1, islet associated with perivascular, periductal leukocytic infiltration only; 2, more extensive peri-islet infiltration, but with lymphocytes with less than 25% islet destruction; 3 more than 25% islet destruction; and 4, complete islet destruction.

[9] = target: IDE (Homo sapiens, UniProt P14735); experiment: Blocking of VZV gE interaction with IDE; assay type: binding; settings: data not shown
[10] = IC50, rat recombinant IDE 1.14 nM, FRET substrate Mca-GGFLRKHGQ-EDDnp

Row | Compound | pIC50 [1, 10] | other results
1 | KCNTGSGGSSLANFDDLVHSSNN [ADT23] | 6.21 | 
2 | DAEFGSGGSSEALYDDLVCG [ADT82] | 6.36 | 
3 | FVNQGSGGSSVLRYDDFHTD [ADT51] | 6.31 | 
4 | VLRYNNFHTD [ADT5N] |  | inhibition of IDE activity (in words) ([1]; rat recombinant IDE 1.14 nM): prevented the inhibition of IDE
5 | KLVFDDFAED [ADT5, KLVFDDFAED] | 6.26 | 
6 | ITNPGSGGSSVLRYDDFHTD [ADT21] | 7.00 and 6.70 to 8.00 | reduction of insulin degradation by IDE [2]: 400%; age at first conversion to diabetes ([3]; NOD mice treated from 12 weeks, every other day, 3.76 μg/kg (94 ng/day), untreated: 15 weeks): 20 weeks; behavioral changes that might indicate toxicity (body weight, eating habits, tail tone, mobility) ([3]; NOD mice, every other day): no behavioral changes; animals remaining disease-free at 30 weeks ([3]; NOD mice, every other day from 12 weeks, 71% of control mice diabetic): 75%; disease progression (in words) ([3]; NOD mice, every other day, vs PBS, P<0.05): significantly delayed; release of IFN-γ ([4]; p<0.01): dose dependant reduction; release of IL-17 ([4]; p<0.05): dose dependant reduction; reduction in the levels of IL-17 [5]: 52%; toxic effect related to IGF1 elevation ([6]; IGF1 below the basal level (about 1000 ng/ml in wild type mice)): no toxic effect was observed; IGF1 blood level ([6]; NOD mice at 30 weeks, control NOD mice 33 ng/ml): 440 ng/mL; blood insulin level relative to reference NOD mice ([7]; printed: compared to sick NOD mice): 62%; increase in blood insulin ([7]; vs control group): about 400%; inhibition of IDE activity (in words) ([1]; rat recombinant IDE 1.14 nM): dose dependent and high efficacy in inhibition of IDE activity; also recorded: inhibits IDE activity in a dose dependant manner; infiltration of T cells in pancreatic islets (insulitis) [8]: significantly less infiltration of T cells
7 | DAEFGSGGSSKLVFDDFAED [ADT25] | 6.22 | 
8 | KCNTGSGGSSVLRYDDFHTD [ADT61] | 6.08 | 
9 | EALYDDLVCG [ADT2] | 6.64 | 
10 | ITNPVRASVLRYDDFHTD [VZV, reference compound] | 6.35 | 
11 | HSQGGSGGSSEALYDDLVCG [ADT72] | 6.93 | 
12 | ITNPGSGGSSKLVFDDFAED [ADT44] | 6.26 | 
13 | N[C@@H](CC(=O)O)C(=O)N[C@@H](CC(=O)O)C(=O)O [ADT-31, DD] (H-Asp-Asp-OH) |  | pIC50 ([1]; rat recombinant IDE 1.14 nM, FRET substrate Mca-[…]-EDDnp, read-out: IC50): 6.13
14 | VLRYDDFHTD [ADT1] | 6.84 | 
15 | VZV gE (24-50): synthetic peptide corresponding to amino acids 24-50 of VZV gE (ITNPVRASVLRYDDFHTDEDKLDTNSV; A peptide sequence derived from VZV gE (24-50)) |  | blocking of VZV gE interaction with IDE [9]: blocked VZV gE interaction with IDE in a concentration dependent manner
16 | ITNPGSGGSSLANFDDLVHSSNN [ADT42] | 6.70 | 
17 | ITNPGSGGSSEALYDDLVCG [ADT41] | 6.48 | 
18 | HSQGGSGGSSFVQWDDLMN [ADT24] | 6.76 | 
19 | EALYLVCG [INS, reference compound] | 6.33 | 
20 | HSQGGSGGSSVLRYDDFHTD [ADT71] | 5.86 | 
21 | LANFDDLVHSSNN [ADT3] | 6.10 | 
